{"source": "ChEMBL document CHEMBL2448809", "about": "“UCSF DeRisi Lab MMV Box Apicoplast Screening”", "data": [{"test_system": "Plasmodium falciparum", "test": "MMV: Compounds (1uM) were screened in a 72hr growth assay monitored by flow cytometry both in the presence and absence of supplemental isopentenyl pyrophosphate (IPP) 200uM. Compounds which fail to show anti-malarial activity when chemically rescued by IPP are therefore specific to the apicoplast. The values are expressed as the ratio of the corresponding activity with and without IPP, respectively.", "type": "functional, W2", "values": [{"molecule": "Nc1ccn([C@@H]2O[C@H](CO)[C@@H](O)[C@H]2O)c(=O)n1", "note": "[CYTIDINE]", "Ratio": 0.6667}, {"molecule": "O=C(Nc1cccc(C2=NCCN2)c1)Nc1cccc(C2=NCCN2)c1", "note": "[IMIDOCARB]", "Ratio": 1}, {"molecule": "CN(C)c1ccc(C(O)(c2ccc(N(C)C)cc2)c2ccc(N(C)C)cc2)cc1", "note": "[METHYLROSANILINE]", "Ratio": 1.127}]}]}
